Reference: patent publication US9302999B2, “Substituted triazoles as herbicides” (E. I. DU PONT DE NEMOURS AND COMPANY, priority 2012, dated 2016)

Columns and labels:
Assay type in all cases: in vivo
[1] = system: morningglory (Ipomoea spp.); assay: Test A pre-/postemergence: morningglory
How it was run: (§1)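 Pre: directed soil spray after planting in loam + sand. Post: same formulation (non-phytotoxic solvent + surfactant) on 1–2-leaf plants, 2–10 cm. Greenhouse ~10 d; visual injury 0–100 vs untreated.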

corn (Zea mays) = assay: Test A pre-/postemergence: corn; details: for Corn plant response rating: Postemergence; for Plant response rating, Corn: Preemergence
How it was run: as §1

[2] = system: pigweed (Amaranthus retroflexus); assay: Test A pre-/postemergence: pigweed
How it was run: as §1

[3] = system: morningglory (Ipomoea coccinea); assay: Test C pre-/postemergence: morningglory
How it was run: (§2)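 Visual injury scored 0–100 (100 = complete control) against untreated controls after 13–15 greenhouse days. Surfactant-containing solvent formulations applied either to soil after sowing (loam/sand) or over 1- to 4-leaf plants, 2–18 cm tall.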

[4] = system: velvetleaf (Abutilon theophrasti); assay: Test A pre-/postemergence: velvetleaf
How it was run: as §1

kochia (Kochia scoparia) = assay: Test C pre-/postemergence: kochia
How it was run: as §2

[5] = system: chickweed (common chickweed, Stellaria media); assay: Test C postemergence: chickweed
How it was run: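 Seedlings are raised in pots of peat-based medium to 2–18 cm (1- to 4-leaf stage). The formulated compound is then applied postemergence. Plants stay in the greenhouse for 13 to 15 days and are rated visually against controls, where 0 means no effect and 100 complete control.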

[6] = system: pigweed (Amaranthus retroflexus); assay: Test C pre-/postemergence: pigweed
How it was run: as §2

[7] = system: foxtail, giant (giant foxtail, Setaria faberii); assay: Test C pre-/postemergence: foxtail, giant
How it was run: as §2

[8] = system: lambsquarters (Chenopodium album); assay: Test C pre-/postemergence: lambsquarters
How it was run: as §2

[9] = system: wheat (Triticum aestivum); assay: Test A pre-/postemergence: wheat
How it was run: as §1

[10] = system: ryegrass, Italian (Italian ryegrass, Lolium multiflorum); assay: Test C pre-/postemergence: ryegrass, Italian
How it was run: as §2

[11] = Postemergence, 125 g ai/ha, 0 to 100 scale, 0 is no effect, 100 is complete control
[12] = Postemergence, 500 g ai/ha, visual rating on 0 to 100 scale (0 no effect, 100 complete control), approximately ten days
[13] = Preemergence, 125 g ai/ha, 0 to 100 scale where 0 is no effect and 100 is complete control
[14] = Preemergence, 500 g ai/ha, 0 to 100 scale (0 no effect, 100 complete control)
[15] = Postemergence, 31 g ai/ha, scale 0 to 100 (0 no effect, 100 complete control)
[16] = Postemergence, 62 g ai/ha, scale 0 to 100 (0 no effect, 100 complete control)
[17] = Postemergence, 125 g ai/ha, scale 0 to 100, 0 no effect, 100 complete control
[18] = Postemergence, 250 g ai/ha, scale 0 to 100
[19] = Preemergence, 31 g ai/ha, scale of 0 to 100, 0 is no effect, 100 is complete control
[20] = Preemergence, 62 g ai/ha, scale of 0 to 100, 0 is no effect, 100 is complete control
[21] = Preemergence, 125 g ai/ha, scale 0 to 100, 0 no effect, 100 complete control
[22] = Preemergence, 250 g ai/ha, scale 0 to 100, 0 no effect, 100 complete control

## Cc1nn(-c2ccc(F)c(F)c2)nc1Oc1ccnc(C(F)(F)F)c1 [Compound 145]
[1]; [11]
  Plant response rating, Morningglory: 100
[1]; [12]
  Morningglory plant response rating: 100
[1]; [13]
  Plant response rating, Morningglory: 10
[1]; [14]
  Plant response rating, Morningglory: 60
Corn (Zea mays); 125 g ai/ha, 0 to 100 scale, 0 is no effect, 100 is complete control
  Corn plant response rating: 40
Corn (Zea mays); 500 g ai/ha, visual rating on 0 to 100 scale (0 no effect, 100 complete control), approximately ten days
  Corn plant response rating: 90
Corn (Zea mays); 125 g ai/ha, 0 to 100 scale where 0 is no effect and 100 is complete control
  Plant response rating, Corn: 10
Corn (Zea mays); 500 g ai/ha, 0 to 100 scale (0 no effect, 100 complete control)
  Plant response rating, Corn: 40
[2]; [11]
  Plant response rating, Pigweed: 100
[2]; [12]
  Pigweed plant response rating: 100
[2]; [13]
  Plant response rating, Pigweed: 100
[2]; [14]
  Plant response rating, Pigweed: 100
[3]; [15]
  Plant response rating, Morningglory: 90
[3]; [16]
  Plant response rating, Morningglory: 90
[3]; [17]
  Plant response rating, Morningglory: 95
[3]; [18]
  Plant response rating, Morningglory: 98
[3]; [19]
  Plant response rating, Morningglory: 15
[3]; [20]
  Plant response rating, Morningglory: 20
[3]; [21]
  Plant response rating, Morningglory: 70
[3]; [22]
  Plant response rating, Morningglory: 85
[4]; [11]
  Plant response rating, Velvetleaf: 100
[4]; [12]
  Velvetleaf plant response rating: 100
[4]; [13]
  Plant response rating, Velvetleaf: 50
[4]; [14]
  Plant response rating, Velvetleaf: 80
Kochia (Kochia scoparia); [15]
  Plant response rating, Kochia: 85
Kochia (Kochia scoparia); [16]
  Plant response rating, Kochia: 85
Kochia (Kochia scoparia); [17]
  Plant response rating, Kochia: 90
Kochia (Kochia scoparia); [18]
  Plant response rating, Kochia: 95
Kochia (Kochia scoparia); [19]
  Plant response rating, Kochia: 50
Kochia (Kochia scoparia); [20]
  Plant response rating, Kochia: 90
Kochia (Kochia scoparia); [21]
  Plant response rating, Kochia: 98
Kochia (Kochia scoparia); [22]
  Plant response rating, Kochia: 98
[5]; 31 g ai/ha, scale 0 to 100 (0 no effect, 100 complete control)
  Plant response rating, Chickweed: 75
[5]; 62 g ai/ha, scale 0 to 100 (0 no effect, 100 complete control)
  Plant response rating, Chickweed: 85
[5]; 125 g ai/ha, scale 0 to 100, 0 no effect, 100 complete control
  Plant response rating, Chickweed: 98
[5]; 250 g ai/ha, scale 0 to 100
  Plant response rating, Chickweed: 100
[6]; [15]
  Plant response rating, Pigweed: 85
[6]; [16]
  Plant response rating, Pigweed: 98
[6]; [17]
  Plant response rating, Pigweed: 98
[6]; [18]
  Plant response rating, Pigweed: 98
[6]; [19]
  Plant response rating, Pigweed: 90
[6]; [20]
  Plant response rating, Pigweed: 98
[6]; [21]
  Plant response rating, Pigweed: 98
[6]; [22]
  Plant response rating, Pigweed: 100
[7]; [15]
  Plant response rating, Foxtail, Giant: 15
[7]; [16]
  Plant response rating, Foxtail, Giant: 20
[7]; [17]
  Plant response rating, Foxtail, Giant: 50
[7]; [18]
  Plant response rating, Foxtail, Giant: 85
[7]; [19]
  Plant response rating, Foxtail, Giant: 95
[7]; [20]
  Plant response rating, Foxtail, Giant: 100
[7]; [21]
  Plant response rating, Foxtail, Giant: 100
[7]; [22]
  Plant response rating, Foxtail, Giant: 100
[8]; [15]
  Plant response rating, Lambsquarters: 95
[8]; [16]
  Plant response rating, Lambsquarters: 95
[8]; [17]
  Plant response rating, Lambsquarters: 95
[8]; [18]
  Plant response rating, Lambsquarters: 95
[8]; [19]
  Plant response rating, Lambsquarters: 55
[8]; [20]
  Plant response rating, Lambsquarters: 85
[8]; [21]
  Plant response rating, Lambsquarters: 95
[8]; [22]
  Plant response rating, Lambsquarters: 98
[9]; [11]
  Plant response rating, Wheat: 20
[9]; [12]
  Wheat plant response rating: 50
[9]; [13]
  Plant response rating, Wheat: 20
[9]; [14]
  Plant response rating, Wheat: 60
[10]; [15]
  Plant response rating, Ryegrass, Italian: 20
[10]; [16]
  Plant response rating, Ryegrass, Italian: 30
[10]; [17]
  Plant response rating, Ryegrass, Italian: 40
[10]; [18]
  Plant response rating, Ryegrass, Italian: 50
[10]; [19]
  Plant response rating, Ryegrass, Italian: 5
[10]; [20]
  Plant response rating, Ryegrass, Italian: 35
[10]; [21]
  Plant response rating, Ryegrass, Italian: 90
[10]; [22]
  Plant response rating, Ryegrass, Italian: 90
